Source: patent US9204653B2, “5-fluoro pyrimidine derivatives” (DOW AGROSCIENCES LLC, priority 2008, dated 2015)
Like-named read-outs stand apart in the source and are kept apart here.

What was measured:
[1] = test system: Cercospora beticola; Bayer Code CERCBE; assay: Leaf spot of sugar beets; type: in vivo, Cercospora beticola on sugar beets (variety HH-88); details: 24 h, % disease control rating, one day protectant; for pest or weed control at 25 ppm: read-out: CERCBE 1 DP 25 ppm; for pest or weed control at 75 ppm: read-out: CERCBE 1 DP 75 ppm
[2] = test system: Mycosphaerella graminicola; Anamorph: Septoria tritici; Bayer Code SEPTTR; assay: Leaf blotch of wheat, foliar fungicide treatment, one day protectant (1DP) or three day curative (3DC); type: in vivo, Septoria tritici on wheat plants (variety Yuma); details: Zymoseptoria tritici
[3] = test system: Venturia inaequalis; Bayer Code VENTIN; assay: Apple scab; type: in vivo; details: 24 h, % disease control rating, one day protectant; for pest or weed control at 25 ppm: read-out: VENTIN 1 DP 25 ppm; for pest or weed control at 75 ppm: read-out: VENTIN 1 DP 75 ppm
[4] = 24 h, one day protectant (1DP), percent disease control rating, read-out: SETTTR 1DP 25 ppm
[5] = 24 h, one day protectant (1DP), percent disease control rating, read-out: SEPTTR 1DP 100 ppm
[6] = 72 h, three day curative (3DC), percent disease control rating, read-out: SEPTTR 3DC 25 ppm
[7] = 72 h, three day curative (3DC), percent disease control rating, read-out: SEPTTR 3DC 100 ppm
[8] = 24 h, one day protectant (1DP), rating of percent disease control, read-out: SETTTR 1DP 25 ppm
[9] = 24 h, one day protectant (1DP), rating of percent disease control, read-out: SEPTTR 1DP 100 ppm
[10] = 72 h, three day curative (3DC), rating of percent disease control, read-out: SEPTTR 3DC 25 ppm
[11] = 72 h, three day curative (3DC), rating of percent disease control, read-out: SEPTTR 3DC 100 ppm

Structure (SMILES) | pest or weed control at 25 ppm [1] [%] | pest or weed control at 75 ppm [1] [%] | pest or weed control at 25 ppm [2, 4] [%] | pest or weed control at 100 ppm [2, 5] [%] | pest or weed control at 25 ppm [2, 6] [%] | pest or weed control at 100 ppm [2, 7] [%] | pest or weed control at 25 ppm [3] [%] | pest or weed control at 75 ppm [3] [%] | pest or weed control at 25 ppm [2, 8] [%] | pest or weed control at 100 ppm [2, 9] [%] | pest or weed control at 25 ppm [2, 10] [%] | pest or weed control at 100 ppm [2, 11] [%]
C/C(=N\Oc1ncc(F)c(N)n1)c1ccccc1 [Compound 4, 1-Phenyl-ethanone-O-(4-amino-5-fluoropyrimidin-2-yl)oxime] | 76 to 100 | 76 to 100 | 76 to 100 | 76 to 100 | 76 to 100 | 76 to 100 | 76 to 100 | 76 to 100 |  |  |  | 
CN1CCN(CNc2nc(OCc3ccc(F)cc3)ncc2F)CC1 [Compound 7, [5-Fluoro-2-(4-fluorobenzyloxy)pyrimidin-4-yl]-(4-methylpiperazin-1-ylmethyl)amine] | 51 to 75 | 51 to 75 | 76 to 100 | 76 to 100 | 76 to 100 | 76 to 100 | 76 to 100 | 76 to 100 |  |  |  | 
CCOC(=O)C(=O)Nc1nc(OCc2ccc(F)cc2)ncc1F [Compound 11, N-[5-Fluoro-2-(4-fluorobenzyloxy)pyrimidin-4-yl]oxalamic acid ethyl ester] | 0 to 25 | 0 to 25 | 76 to 100 | 76 to 100 | 76 to 100 | 76 to 100 | 76 to 100 | 76 to 100 |  |  |  | 
CCC(Nc1nc(OCc2ccc(F)cc2)ncc1F)OC (centres unmarked) [Compound 14, [5-Fluoro-2-(4-fluorobenzyloxy)pyrimidin-4-yl](1-methoxypropyl)amine] | 0 to 25 | 0 to 25 | 76 to 100 | 76 to 100 | 76 to 100 | 76 to 100 | 76 to 100 | 76 to 100 |  |  |  | 
N#CN/C=N/c1nc(OCc2ccc(F)cc2)ncc1F [Compound 23, N-[5-Fluoro-2-(4-fluorobenzyloxy)pyrimidin-4-yl]-N′-cyanoformamidine] | 0 to 25 | 51 to 75 | 76 to 100 | 76 to 100 | 76 to 100 | 76 to 100 | 51 to 75 | 76 to 100 |  |  |  | 
CC/C(=N\c1nc(OCc2ccc(F)cc2)ncc1F)N(C)C [Compound 24, N′-[5-Fluoro-2-(4-fluorobenzyloxy)pyrimidin-4-yl]-N,N-dimethyl-propionamidine] | 0 to 25 | 0 to 25 | 76 to 100 | 76 to 100 | 76 to 100 | 76 to 100 | 26 to 50 | 76 to 100 |  |  |  | 
CCCNC(=O)N(C(=O)NCCC)c1nc(OCc2cccc(OC)c2)ncc1F [Compound 36, 1-[5-Fluoro-2-(3-methoxybenzyloxy)pyrimidin-4-yl](3′-propylcarbamoyl)-3-propyl-urea] | 51 to 75 | 51 to 75 | 26 to 50 | 76 to 100 | 51 to 75 | 76 to 100 | 51 to 75 | 76 to 100 |  |  |  | 
Nc1nc(OC(Cc2ccccc2)c2ccc(F)cc2)ncc1F (centres unmarked) [Compound 61] | 0 to 25 | 0 to 25 | 76 to 100 | 76 to 100 | 0 to 25 | 0 to 25 | 76 to 100 | 51 to 75 |  |  |  | 
CCCCCCOc1ncc(F)c(/N=C/N(C)C)n1 [Compound 68] | 51 to 75 | 51 to 75 | 0 to 25 | 51 to 75 | 0 to 25 | 51 to 75 | 51 to 75 | 76 to 100 |  |  |  | 
Nc1nc(OCc2coc(Cc3ccccc3)c2)ncc1F [Compound 69] | 0 to 25 | 26 to 50 | 76 to 100 | 76 to 100 | 51 to 75 | 76 to 100 | 51 to 75 | 76 to 100 |  |  |  | 
Nc1nc(OCc2ccc(OCC(F)(F)F)nc2)ncc1F [Compound 79] | 0 to 25 | 26 to 50 | 76 to 100 | 76 to 100 | 76 to 100 | 76 to 100 | 26 to 50 | 26 to 50 |  |  |  | 
CN(C)/C=N/c1nc(OCc2ccccc2)ncc1F [Compound 209] |  |  |  |  |  |  | 51 to 75 | 76 to 100 | 76 to 100 | 76 to 100 | 76 to 100 | 76 to 100
CCOC(=O)COc1ncc(F)c(N)n1 [Compound 221] | 26 to 50 | 51 to 75 |  |  |  |  | 0 to 25 | 26 to 50 |  |  |  | 
Nc1nc(OCc2cccc(F)c2)ncc1F [Compound 236] |  |  |  |  |  |  | 76 to 100 | 76 to 100 | 76 to 100 | 76 to 100 | 76 to 100 | 76 to 100
Cc1ccccc1C(C)Oc1ncc(F)c(N)n1 (centres unmarked) [Compound 313] |  |  |  |  |  |  | 26 to 50 | 51 to 75 | 76 to 100 | 76 to 100 | 76 to 100 | 76 to 100
Nc1nc(OCc2cc3ccccc3s2)ncc1F [Compound 345] |  |  |  |  |  |  | 51 to 75 | 76 to 100 | 76 to 100 | 76 to 100 | 76 to 100 | 76 to 100
Cc1cc(C)c(COc2ncc(F)c(/N=C/N(C)C)n2)c(C)c1 [Compound 347] |  |  |  |  |  |  | 76 to 100 | 26 to 50 | 76 to 100 | 76 to 100 | 76 to 100 | 76 to 100
Cc1ccc(COc2ncc(F)c(/N=C/N(C)C)n2)cc1 [Compound 469] |  |  |  |  |  |  | 51 to 75 | 76 to 100 | 76 to 100 | 76 to 100 | 76 to 100 | 76 to 100
Cc1cc(C)c(COc2ncc(F)c(N)n2)c(C)c1 [Compound 510] |  |  |  |  |  |  | 76 to 100 | 76 to 100 | 51 to 75 | 76 to 100 | 51 to 75 | 76 to 100
COc1ccc(COc2ncc(F)c(N)n2)cc1 [Compound 734] |  |  |  |  |  |  | 76 to 100 | 76 to 100 | 76 to 100 | 76 to 100 | 76 to 100 | 76 to 100
